From patent US20040127439A1, “Introduction of the wld gene for prevention of axonal degeneration in neurological diseases” (priority 2004, published 2004)
Like-named read-outs stand apart in the source and are kept apart here.

What was measured:
DRG neurites [1] = assay: Effect of treatment modalities on DRG area and neuritic length in control cultures (no vincristine); type: cell-based, rat; details: for Area / Length: added to 5-day old cultures, after 6 days of treatment, no vincristine; for effects on neurite growth or survival in control cultures (in words): addition to control cultures
Text: This date is defined as treatment day 0. Cultures are monitored and imaged daily using video microscopy. […] The final concentration of DMSO is 0.05%.

axotomized neurites = assay: Wallerian degeneration of axotomized DRG neurites in culture; type: cell-based, rat; details: added at the time of axotomy; EGTA 2 mM or AK295 50 μM; 72 hours after axotomy
Description: Five-day old cultures with extended neurites are used. Neurites are cut by excising and removing the DRG with a scalpel blade. Care should be taken to remove substantially all neurons within the DRG. At least 1 ganglion/dish was left unaxotomized to serve as a control for that group of ganglia. For experiments involving therapeutic interventions, the media is changed just prior to axotomy to media containing either EGTA (2 mM) or AK295 (50 μM). Cultures are observed daily for 72 hours after axotomy, at which time they are fixed and immunostained.
Stained cultures are scored blindly for degree of axonal degeneration. […] Any fibers with interruptions along their length are scored as degenerated. The number of surviving fibers in each DRG are counted under 200× magnification, and the DRG is given a survival score of 0-3: 0 =no fibers remaining, 1=1-4 fibers remaining, 2=5-9 fibers remaining, 3=10 or more fibers remaining.

DRG neurites [2] = details: for Area (DRG neuritic halo) / Length (longest neurite): Vin 0.01 μM, EGTA 2 mM
Description: On the day of DRG culture, the dishes are washed twice with PBS buffer (pH 7.4), filled with 550 μl medium and pre-incubated at 37 C for at least 2 hours. Fifteen-day old embryos (E15) are removed from pregnant Sprague-Dawley rats (Charles River), and spinal cords with cervical and thoracic DRGs attached are dissected into Leibovitz L-15 medium (GIBCO). Ganglia are separated from the spinal cord, stripped of their connective tissue sheaths and roots, and are then pooled and washed twice with PBS buffer (pH 7.4). DRGs are plated (4 per dish) in culture media and incubated at 37° C. in 5% carbon dioxide for 4 hours to allow DRGs to attach to the substrate. Medium is then added to bring the total volume to 1 ml. […] Calcium-free medium is prepared in the same manner, replacing MEM with S-MEM (GIBCO).
At the end of the treatment period (see below) DRGs are fixed for 30 minutes with 4% paraformaldehyde. Cultures are then rinsed with 0.1M TBS buffer, and treated sequentially with 3% H2O2, TBS-Triton, and 4% normal goat serum (NGS), each for 30 minutes at room temperature. DRGs are incubated at 4 C overnight in monoclonal antibody to MAP5 (1:500, Sigma). After washing in TBS-Triton, DRGs are incubated for 60 minutes in biotinylated secondary antibody, rinsed with TBS and reacted with avidin-biotin complex solution (ABC; Vector Labs) for one hour. Color is generated by incubation for 10 minutes in diaminobenzidine (DAB) solution, enhanced by addition of 0.025% cobalt chloride and 0.02% nickel ammonium sulfate. Stained tissue is rinsed, air dried and cover-slipped for microscopy with Crystal/Mount (Biomeda).
This method of allowing neuritic extension to proceed before addition of a neurotoxin tests the effect of the toxin on established neurites as opposed to the effect on primary neuritic outgrowth.
After day 5 of culture, the media is changed to that containing the experimental treatment. This date is defined as treatment day 0. Cultures are monitored and imaged daily using video microscopy. […] AK 295 (Z-leu-Abu-(CH2)3-4-morpholinyl, gift of Dr. James Powers, Georgia Institute of Technology), is dissolved in 100% DMSO and is then diluted to its final concentration with culture medium. The final concentration of DMSO is 0.05%. Phenylmethylsulfonyl fluoride (PMSF) is manufactured by and commercially available from Sigma.
After 6 days of treatment (11 days in culture) immunostained DRGs are quantitated for degree of axonal degeneration. Images of the DRGs and neurites are captured onto disk using a computerized video imaging system, and are analyzed using NIH Image version 1.61. DRG areas are calculated by tracing the outside circumference of the remaining culture halo. The length of the longest neurite of each DRG is measured from the center of the DRG to the distal end of the neurite, so that cultures without remaining neurites still have positive values. These quantitative data are subjected to ANOVA, with post-test correction for multiple comparisons.

[3] = Day 3 of treatment, AK295 50 μM
[4] = Day 4 of treatment, AK295 50 μM
[5] = Day 6 of treatment, AK295 50 μM, PMSF 50 μM

Row | Compound | Area (DRG neurites [1]) | Length (DRG neurites [1]) | effects on neurite growth or survival in control cultures (in words) (DRG neurites [1]) | protection against Wallerian degeneration (in words) (axotomized neurites) | prevention of vincristine-induced axonal degeneration (in words) (DRG neurites [2]; AK295 1 μM (not shown)) | prevention of vincristine-induced axonal degeneration (in words) (DRG neurites [2]; AK295 10 μM (not shown)) | prevention of vincristine-induced axonal degeneration (in words) (DRG neurites [2]; AK295 50 μM) | Area (DRG neuritic halo) (DRG neurites [2]; [3]) | Length (longest neurite) (DRG neurites [2]; [3]) | Area (DRG neuritic halo) (DRG neurites [2]; [4]) | Length (longest neurite) (DRG neurites [2]; [4]) | Area (DRG neuritic halo) (DRG neurites [2]; [5]) | Length (longest neurite) (DRG neurites [2]; [5]) | protection against vincristine-induced axonal degeneration (in words) (DRG neurites [2]; EGTA 2 mM in standard media) | protection against vincristine-induced axonal degeneration (in words) (DRG neurites [2]; EGTA ≦1 mM in standard media) | protection against vincristine-induced axonal degeneration (in words) (DRG neurites [2]; PMSF 50 μM, day 6)
1 | CCC(NC(=O)[C@H](CC(C)C)NC(=O)OCc1ccccc1)C(=O)C(=O)NCCCN1CCOCC1 (stereo partly shown) [AK295, Z-leu-Abu-(CH2)3-4-morpholinyl] | 49.18 ± 2.69 mm^2 | 4.80 ± 0.16 mm | no effects on neurite growth or survival | as protective as EGTA | ineffective | effective in preventing axonal degeneration | effective in preventing axonal degeneration | 16.61 ± 1.18 (18) mm^2 | 2.65 ± 0.11 mm | 14.77 ± 2.19 (14) mm^2 | 2.45 ± 0.25 mm | 10.34 ± 2.14 (12) mm^2 | 2.05 ± 0.25 mm |  |  | 
2 | O=C(O)CN(CCOCCOCCN(CC(=O)O)CC(=O)O)CC(=O)O [EGTA] | 44.40 ± 2.74 mm^2 | 4.74 ± 0.18 mm | no effects on neurite growth or survival | significant protection |  |  |  | 15.05 ± 1.78 (12) mm^2 | 2.62 ± 0.17 mm | 12.97 ± 0.94 mm^2 | 2.44 ± 0.13 mm | 13.36 ± 1.04 (14) mm^2 | 2.43 ± 0.07 mm | as effective as calcium-free media | ineffective | 
3 | O=S(=O)(F)Cc1ccccc1 [PMSF, Phenylmethylsulfonyl fluoride] |  |  |  |  |  |  |  |  |  |  |  | 0.73 ± 0.16 (43) mm^2 | 0.55 ± 0.06 mm |  |  | no protective effects
